Laboratory results reported in patent US11639352B2, “Benzothiazole compounds for the treatment of autoimmune diseases” (Hoffmann-La Roche Inc., priority 2018, dated 2023).

Target: T1, human TLR7 (Homo sapiens, UniProt Q9NYK1)
T1 sequence (Q9NYK1 27-1049): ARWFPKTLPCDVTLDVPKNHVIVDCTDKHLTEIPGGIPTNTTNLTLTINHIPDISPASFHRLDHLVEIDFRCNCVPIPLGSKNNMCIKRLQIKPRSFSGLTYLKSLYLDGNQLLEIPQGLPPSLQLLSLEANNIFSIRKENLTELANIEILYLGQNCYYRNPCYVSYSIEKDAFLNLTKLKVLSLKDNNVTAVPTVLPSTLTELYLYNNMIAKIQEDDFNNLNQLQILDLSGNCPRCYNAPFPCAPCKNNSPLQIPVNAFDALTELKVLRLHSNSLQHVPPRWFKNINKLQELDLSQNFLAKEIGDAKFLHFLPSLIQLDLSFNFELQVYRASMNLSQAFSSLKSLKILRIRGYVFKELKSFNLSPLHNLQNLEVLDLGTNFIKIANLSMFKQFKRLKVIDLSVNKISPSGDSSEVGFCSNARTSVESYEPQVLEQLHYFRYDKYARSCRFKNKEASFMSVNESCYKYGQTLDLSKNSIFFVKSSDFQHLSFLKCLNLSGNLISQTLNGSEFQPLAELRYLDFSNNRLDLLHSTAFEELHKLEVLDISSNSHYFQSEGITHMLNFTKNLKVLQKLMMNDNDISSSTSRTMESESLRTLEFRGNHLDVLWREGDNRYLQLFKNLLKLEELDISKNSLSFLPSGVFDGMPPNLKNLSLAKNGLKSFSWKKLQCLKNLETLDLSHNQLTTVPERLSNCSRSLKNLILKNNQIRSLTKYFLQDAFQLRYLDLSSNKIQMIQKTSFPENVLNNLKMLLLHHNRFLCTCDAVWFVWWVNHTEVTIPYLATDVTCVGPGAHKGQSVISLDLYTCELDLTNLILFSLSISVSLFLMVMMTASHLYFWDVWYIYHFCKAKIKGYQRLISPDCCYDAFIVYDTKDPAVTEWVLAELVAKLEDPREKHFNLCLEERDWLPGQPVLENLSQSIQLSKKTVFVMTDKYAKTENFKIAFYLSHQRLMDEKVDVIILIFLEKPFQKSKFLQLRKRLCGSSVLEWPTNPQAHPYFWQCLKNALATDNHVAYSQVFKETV
Experiment: HEK293-Blue-hTLR-7 cells assay (SEAP reporter, R848 stimulation)
Assay type: cell-based
Settings: HEK293-Blue-hTLR7 cells, R848 ligand, 20 hrs incubation, antagonist
Experimental: The following tests were carried out in order to determine the activity of the compounds of formula (I) in HEK293-Blue-hTLR-7/8/9 cells assay.
HEK293-Blue-hTLR-7 Cells Assay:
A stable HEK293-Blue-hTLR-7 cell line was purchased from InvivoGen (Cat. #: hkb-htlr7, San Diego, Calif., USA). These cells were originally designed for studying the stimulation of human TLR7 by monitoring the activation of NF-κB. A SEAP (secreted embryonic alkaline phosphatase) reporter gene was placed under the control of the IFN-β minimal promoter fused to five NF-κB and AP-1-binding sites. The SEAP was induced by activating NF-κB and AP-1 via stimulating HEK-Blue hTLR7 cells with TLR7 ligands. Therefore the reporter expression was declined by TLR7 antagonist under the stimulation of a ligand, such as R848 (Resiquimod), for incubation of 20 hrs. The cell culture supernatant SEAP reporter activity was determined using QUANTI-Blue™ kit (Cat. #: rep-qb1, Invivogen, San Diego, Calif., USA) at a wavelength of 640 nm, a detection medium that turns purple or blue in the presence of alkaline phosphatase.
HEK293-Blue-hTLR7 cells were incubated at a density of 250,000˜450,000 cells/mL in a volume of 170 μL in a 96-well plate in Dulbecco's Modified Eagle's medium (DMEM) containing 4.5 g/L glucose, 50 U/mL penicillin, […], […], 2 mM L-glutamine, 10% (v/v) heat-inactivated fetal bovine serum with addition of 20 μL test compound in a serial dilution in the presence of final DMSO at 1% and 10 μL of 20 uM R848 in above DMEM, perform incubation under 37° C. in a CO2 incubator for 20 hrs. Then 20 μL of the supernatant from each well was incubated with 180 μL Quanti-blue substrate solution at 37° C. for 2 hrs and the absorbance was read at 620˜655 nm using a spectrophotometer. The signalling pathway that TLR7 activation leads to downstream NF-κB activation has been widely accepted, and therefore similar reporter assay was modified for evaluating TLR7 antagonist.

Structure (SMILES) | IC50
C[C@@H]1CN(c2ccc(C#N)c3ncsc23)C[C@H](CN2CCC3(CCCNC3)C2)O1 (stereo partly drawn) [Example 1, 7-[(2S,6R)-2-(2,9-diazaspiro[4.5]decan-2-ylmethyl)-6-methyl-morpholin-4-yl]-1,3-benzothiazole-4-carbonitrile] | 0.011 µM
C[C@@H]1CN(c2ccc(C#N)c3ncsc23)C[C@H](CN2CCC(N)CC2)O1 [Example 2, 7-[(2S,6R)-2-[(4-amino-1-piperidyl)methyl]-6-methyl-morpholin-4-yl]-1,3-benzothiazole-4-carbonitrile] | 0.026 µM
C[C@@H]1CN(c2ccc(C#N)c3ncsc23)C[C@H](CN2CCC3(CCCNC3)CC2)O1 [Example 3, 7-[(2S,6R)-2-(2,9-diazaspiro[5.5]undecan-9-ylmethyl)-6-methyl-morpholin-4-yl]-1,3-benzothiazole-4-carbonitrile] | 0.019 µM
C[C@@H]1CN(c2ccc(C#N)c3ncsc23)C[C@H](CN2CC3(CCCNC3)C2)O1 [Example 4, 7-[(2S,6R)-2-(2,8-diazaspiro[3.5]nonan-2-ylmethyl)-6-methyl-morpholin-4-yl]-1,3-benzothiazole-4-carbonitrile] | 0.012 µM
C[C@@H]1CN(c2ccc(C#N)c3ncsc23)C[C@H](CN2CCC3(CCNCC3)CC2)O1 [Example 5, 7-[(2S,6R)-2-(3,9-diazaspiro[5.5]undecan-3-ylmethyl)-6-methyl-morpholin-4-yl]-1,3-benzothiazole-4-carbonitrile] | 0.048 µM
C[C@@H]1CN(c2ccc(C#N)c3ncsc23)C[C@H](CN2CCC3(CCNC3)CC2)O1 [Example 6, 7-[(2S,6R)-2-(2,8-diazaspiro[4.5]decan-8-ylmethyl)-6-methyl-morpholin-4-yl]-1,3-benzothiazole-4-carbonitrile] | 0.041 µM
C[C@@H]1CN(c2ccc(C#N)c3ncsc23)C[C@H](CN2CCC(N3CCCCC3)CC2)O1 [Example 7, 7-[(2R,6S)-2-methyl-6-[[4-(1-piperidyl)-1-piperidyl]methyl]morpholin-4-yl]-1,3-benzothiazole-4-carbonitrile] | 0.013 µM
C[C@@H]1CN(c2ccc(C#N)c3ncsc23)C[C@H](CN2[C@@H]3CC[C@H]2C[C@@H](N)C3)O1 [Example 8, Endo-7-[(2S,6R)-2-[[(1R,5S)-3-amino-8-azabicyclo[3.2.1]octan-8-yl]methyl]-6-methyl-morpholin-4-yl]-1,3-benzothiazole-4-carbonitrile] | 0.016 µM
C[C@@H]1CN(c2ccc(C#N)c3ncsc23)C[C@H](CN2[C@@H]3CC[C@H]2C[C@H](N)C3)O1 [Example 9, Exo-7-[(2S,6R)-2-[[(1S,5R)-3-amino-8-azabicyclo[3.2.1]octan-8-yl]methyl]-6-methyl-morpholin-4-yl]-1,3-benzothiazole-4-carbonitrile] | 0.045 µM
C[C@@H]1CN(c2ccc(C#N)c3ncsc23)C[C@H](CN2CCC3(CCCN(C)C3)CC2)O1 [Example 10, 7-[(2R,6S)-2-methyl-6-[(2-methyl-2,9-diazaspiro[5.5]undecan-9-yl)methyl]morpholin-4-yl]-1,3-benzothiazole-4-carbonitrile] | 0.015 µM
C[C@@H]1CN(c2ccc(C#N)c3ncsc23)C[C@H](C(=O)NC2CCN(C)CC2)O1 [Example 11, (2R,6R)-4-(4-cyano-1,3-benzothiazol-7-yl)-6-methyl-N-(1-methyl-4-piperidyl)morpholine-2-carboxamide] | 0.005 µM
C[C@@H]1CN(c2ccc(C#N)c3ncsc23)C[C@H](C(=O)NCC2CN(C)CCO2)O1 (stereo partly drawn) [Example 12, (2R,6R)-4-(4-cyano-1,3-benzothiazol-7-yl)-6-methyl-N-[(4-methylmorpholin-2-yl)methyl]morpholine-2-carboxamide] | 0.004 µM
